Measurements as given in US8394929B2, “Nogo receptor-mediated blockade of axonal growth” (Yale University, priority 2000, dated 2013).

Columns and labels:
Assay type in all cases: cell-based
[1] = test system: Sema3A-induced growth cone collapse; assay: Sema3A-induced growth cone collapse in chick DRG cultures
Source text: The Nogo-66 receptor protein is necessary for Nogo-66 action and not simply a binding site with a function unrelated to inhibition of axonal outgrowth. A first prediction is that phosphoinositol specific-Phospholipase C (PI-PLC) treatment to remove glycophosphatidylinositol (GPI)-linked proteins from the neuronal surface will render neurons insensitive to Nogo-66. This prediction holds true for chick E13 dorsal root ganglion neurons; PI-PLC treatment abolishes both AP-Nogo binding and GST-Nogo-66-induced growth cone collapse (FIG. 10a-c). As a control, Sema3A responses in the parallel cultures are not altered by PI-PLC treatment.
(§1) For further testing, a synthetic peptide containing amino acid residues #1055-1094 of hNgR, acetylated at the […] was used [hereinafter “Peptide 140”]. […] Antagonist of Nogo-66 inhibitory activity may act by competing for, and thereby blocking NgR binding sites. To determine the antagonistic activity of Peptide 140, the above synthetic form of the peptide was added to E12 chick DRG explant cultures approximately 10 min before application of various concentrations of GST-NogoA (residues #1055-1120), TPA or Sema3A. 30 min later, cultures were fixed and growth cone collapse was assessed following staining with rhodamine-phalloidin.

[2] = test system: TPA-induced growth cone collapse; assay: TPA-induced growth cone collapse in E12 chick DRG explants
Method: as §1

NgRL1 chimeric receptor = target: T1, NgRL1 chimeric receptor (Mus musculus, UniProt P11627+Q99PI8); assay: Growth cone collapse in E7 retinal ganglion cells infected with NgRL1
T1 construct: L1NgR encodes residues 1-451 of mouse NgR fused to the transmembrane and cytoplasmic tail of mouse L1; expressed in transfected cells; host or cells: chick E7 retinal ganglion cells infected with recombinant HSVL1NgR
Method: Growth cone collapse in response to GST-hNogo-A (1055-1120) was investigated in infected RGC cultures. Retinal explants infected with recombinant viral preparations of PlexinA1 (PlexA1), wild-type NgR (wtNgR), NgRL1 chimeric receptor in which the GPI domain has been replaced by the transmembrane region and cytoplasmic tail from the mouse adhesion protein L1 (NgRL1), or NgR carboxy terminal deletion mutant (NgRΔCT) for 12 hr. Following infection, the cells were treated for 30 min with 0, 50, 250, or 500 nM GST-hNogo-A (1055-1120) (GrandPre et al., Nature 403: 439-444, 2000), fixed with 4% paraformaldehyde with 0.1 M PO4 and 20% sucrose, and stained with phalloidin. […] Cells infected with NgRΔCT were insensitive to GST-hNogo-A (1055-1120). The CT region of NgR is therefore required for effective NgR inhibitory signaling.
To test the signaling capability of NgRLI, recombinant HSVL1NgR preparations were produced and used to infect E7 RGCs. Infected RGCs were treated with GST-hNogo-A (1055-1120) and growth cone collapse was assessed (FIG. 20). […] Because the intracellular signals induced by Nogo have not been elucidated, it remains to be determined if ligand binding effects signaling events at caveolar microdomains.

T1 sequence (Q99PI8+P11627 fused, change not shown): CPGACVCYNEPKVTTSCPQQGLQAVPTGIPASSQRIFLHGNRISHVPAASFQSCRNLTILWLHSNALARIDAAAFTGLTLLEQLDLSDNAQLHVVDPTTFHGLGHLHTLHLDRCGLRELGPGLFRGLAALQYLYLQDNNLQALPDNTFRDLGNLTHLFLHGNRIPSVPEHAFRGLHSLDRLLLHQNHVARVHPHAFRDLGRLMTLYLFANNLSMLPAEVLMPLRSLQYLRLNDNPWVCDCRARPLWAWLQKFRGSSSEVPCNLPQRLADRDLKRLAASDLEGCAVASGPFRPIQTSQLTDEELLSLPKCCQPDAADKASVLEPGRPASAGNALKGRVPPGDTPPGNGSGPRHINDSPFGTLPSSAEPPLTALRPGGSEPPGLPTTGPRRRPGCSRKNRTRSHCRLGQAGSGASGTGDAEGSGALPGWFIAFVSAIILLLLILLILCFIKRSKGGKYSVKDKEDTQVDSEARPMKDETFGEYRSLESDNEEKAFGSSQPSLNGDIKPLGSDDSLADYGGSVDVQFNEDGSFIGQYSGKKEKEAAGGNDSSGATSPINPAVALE

Peptide 140: synthetic peptide of amino acids #1055-1094 of the human NogoA protein, acetylated and amidated at the termini (Ac-RIYKGVIQAIQKSDEGHPFRAYLESEVAISEELVQKYSNS-NH2; UniProt Q9NQC3 1055-1094, looked up, fragment)
effect on Sema3A-induced growth cone collapse (in words) [1]: no significant reduction in collapse | effect on TPA-induced growth cone collapse (in words) [2]: no significant reduction in collapse

B1: GST-Nogo: GST fusion protein of the 66 amino acid lumenal-extracellular fragment of Nogo-A, expressed in E. coli (protein)
chain: RIYKGVIQAIQKSDEGHPFRAYLESEVAISEELVQKYSNSALGHVNCTIKELRRLFLVDDLVDSLK
modifications: also: GST fusion protein
notes: GST fusion protein of the 66 amino acid lumenal-extracellular fragment of Nogo-A, expressed in E. coli
growth cone collapse response (in words) (NgRL1 chimeric receptor; 50 nM GST-hNogo-A (1055-1120)): not responsive | growth cone collapse response (in words) (NgRL1 chimeric receptor; high concentrations of GST-hNogo-A (1055-1120)): transduces Nogo signals as efficiently as wtNgR
